The values below come from patent US20120029190A1, “COMPOUNDS FOR TREATING DISORDERS MEDIATED BY METABOTROPIC GLUTAMATE RECEPTOR 5, AND METHODS OF USE THEREOF” (priority 2009, published 2012).

For orientation: IC50 means the point on the concentration scale where inhibition reaches its midpoint.

Where two headings read alike, the source gives them in different places.

The test addresses T1, human recombinant mGluR5 receptor (Homo sapiens, UniProt P41594).
T1 construct: expressed in transfected cells; expression induced with doxycycline
Nature of the test: mGluR5 in vitro functional assay (aequorin cell line, inhibition of glutamate EC80 response). It is filed as cell-based. As to conditions: aequorin cell line expressing human mGluR5, reference agonist glutamate at EC80, obtained in duplicate, read-out: IC50. The gist of the method:
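Doxycycline-induced (600 ng/mL, 18 h) aequorin cells loaded with coelenterazine h ≥4 h at room temperature; compound preincubated 3 min before glutamate at EC80. Luminescence recorded, normalized to digitonin or 20 mM ATP wells; % inhibition of EC80 response fitted by sigmoidal nonlinear regression.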

T1 sequence (P41594 21-1212): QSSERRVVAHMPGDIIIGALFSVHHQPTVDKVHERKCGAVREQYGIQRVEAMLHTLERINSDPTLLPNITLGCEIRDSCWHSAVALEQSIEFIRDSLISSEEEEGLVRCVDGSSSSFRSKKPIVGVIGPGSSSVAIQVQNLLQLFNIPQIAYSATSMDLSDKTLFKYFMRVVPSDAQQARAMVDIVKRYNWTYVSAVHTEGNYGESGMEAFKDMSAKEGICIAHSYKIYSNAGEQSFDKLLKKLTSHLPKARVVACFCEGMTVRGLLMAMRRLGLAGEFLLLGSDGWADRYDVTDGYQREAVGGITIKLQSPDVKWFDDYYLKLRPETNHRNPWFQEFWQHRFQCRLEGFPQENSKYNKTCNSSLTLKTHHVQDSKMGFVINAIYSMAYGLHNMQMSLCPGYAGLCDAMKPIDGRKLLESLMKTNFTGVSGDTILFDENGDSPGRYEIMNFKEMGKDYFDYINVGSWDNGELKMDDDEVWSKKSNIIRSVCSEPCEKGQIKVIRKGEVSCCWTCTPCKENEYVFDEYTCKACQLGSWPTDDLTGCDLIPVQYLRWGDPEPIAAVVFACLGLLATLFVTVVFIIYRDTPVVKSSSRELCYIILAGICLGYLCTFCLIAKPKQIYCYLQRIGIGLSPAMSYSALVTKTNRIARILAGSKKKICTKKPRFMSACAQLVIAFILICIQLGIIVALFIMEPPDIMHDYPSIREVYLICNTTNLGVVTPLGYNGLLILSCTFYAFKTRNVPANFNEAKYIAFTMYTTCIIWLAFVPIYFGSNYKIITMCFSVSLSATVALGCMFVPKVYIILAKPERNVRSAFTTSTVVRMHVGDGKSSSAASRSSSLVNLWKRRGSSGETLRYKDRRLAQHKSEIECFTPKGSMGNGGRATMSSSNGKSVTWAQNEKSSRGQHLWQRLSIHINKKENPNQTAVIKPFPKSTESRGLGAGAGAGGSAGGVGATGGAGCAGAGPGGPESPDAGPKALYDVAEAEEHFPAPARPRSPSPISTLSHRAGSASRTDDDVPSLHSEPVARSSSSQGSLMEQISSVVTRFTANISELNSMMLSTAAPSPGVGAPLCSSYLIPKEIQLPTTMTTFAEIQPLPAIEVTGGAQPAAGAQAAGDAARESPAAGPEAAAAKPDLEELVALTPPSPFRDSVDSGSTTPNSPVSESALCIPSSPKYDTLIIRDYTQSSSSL

Take `N#Cc1cccnc1N1Cc2nc(-c3ccccn3)oc2C1` [Compound 85, 2-(2-(Pyridin-2-yl)-4H-pyrrolo[3,4-d]oxazol-5(6H)-yl)pyridine-3-carbonitrile]: where the note is “Table 1”, the IC50 is less than 1000 nM.

As for `N#Cc1cc(F)cc(N2CCc3oc(-c4ccncn4)nc3C2)c1` [Compound 118, 3-fluoro-5-(2-(pyrimidin-4-yl)-6,7-dihydrooxazolo[4,5-c]pyridin-5(4H)-yl)benzonitrile], for the setting “Table 2”, the IC50 was less than 1000 nM.

As for `N#Cc1cccnc1N1CCc2oc(-c3ccccc3)nc2C1` [Compound 37, 2-(2-Phenyl-6,7-dihydrooxazolo[4,5-c]pyridin-5(4H)-yl)nicotinonitrile], for the setting “Table 1”, the IC50 was less than 10000 nM.

For `Fc1ccc(-c2nc3c(o2)CCN(c2cc(F)cc(Cl)c2)C3)nc1` [Compound 159, 5-(3-Chloro-5-fluorophenyl)-2-(5-fluoropyridin-2-yl)-4,5,6,7-tetrahydrooxazolo[4,5-c]pyridine], the 50% inhibitory concentration (IC50) (Table 2) is less than 1000 nM.

For `N#Cc1cc(F)cc(N2CCc3oc(-c4ccccn4)nc3C2)c1` [Compound 30, 3-Fluoro-5-(2-(pyridin-2-yl)-6,7-dihydrooxazolo[4,5-c]pyridin-5(4H)-yl)benzonitrile], where the note is “Table 1”, the IC50 is less than 1000 nM.

As to `N#Cc1cccc(N2CCc3nc(C4CCCCC4)oc3C2)c1` [Compound 149, 3-(2-Cyclohexyl-6,7-dihydrooxazolo[5,4-c]pyridin-5(4H)-yl)benzonitrile], the IC50 (Table 2) is less than 10000 nM.

Turning to `Fc1ccc(-c2nc3c(o2)CCCN(c2cccc(Cl)c2)C3)nc1` [Compound 134, 5-(3-chlorophenyl)-2-(5-fluoropyridin-2-yl)-5,6,7,8-tetrahydro-4H-oxazolo[4,5-c]azepine], under “Table 2”, the IC50 was less than 1000 nM.

On to `Clc1cncc(N2CCCc3oc(-c4ncccn4)nc3C2)c1` [Compound 201, 5-(5-Chloropyridin-3-yl)-2-(pyrimidin-2-yl)-5,6,7,8-tetrahydro-4H-oxazolo[4,5-c]azepine], for which, under “Table 2”, the half-inhibitory concentration (IC50) was less than 10000 nM.

Regarding `Fc1ccccc1N1CCc2oc(-c3ccccn3)nc2C1` [Compound 166, 5-(2-Fluorophenyl)-2-(pyridin-2-yl)-4,5,6,7-tetrahydrooxazolo[4,5-c]pyridine], where the note is “Table 2”, the IC50 was less than 1000 nM.

With `Cc1cccnc1-c1nc2c(o1)CCN(c1cccc(Cl)c1)C2` [Compound 123, 5-(3-chlorophenyl)-2-(3-methylpyridin-2-yl)-4,5,6,7-tetrahydrooxazolo[4,5-c]pyridine], the IC50 (Table 2) is greater than 10000 nM.

As to `Fc1cccc(N2CCCc3oc(-c4cnccn4)nc3C2)c1` [Compound 139, 5-(3-fluorophenyl)-2-(pyrazin-2-yl)-5,6,7,8-tetrahydro-4H-oxazolo[4,5-c]azepine], the IC50 (Table 2) is less than 10000 nM.

`Clc1cccc(N2CCc3oc(-c4ccccn4)nc3C2)c1` [Compound 115, 5-(3-chlorophenyl)-2-(pyridin-2-yl)-4,5,6,7-tetrahydrooxazolo[4,5-c]pyridine]: the IC50 (Table 2) was less than 1000 nM.

For the compound `Fc1cc(F)cc(N2CCc3nc(-c4ccccn4)oc3C2)c1` [Compound 17, 5-(3,5-Difluorophenyl)-2-(pyridin-2-yl)-4,5,6,7-tetrahydrooxazolo[5,4-c]pyridine], the half-inhibitory concentration (IC50) (Table 1) was less than 1000 nM.

For the compound `N#Cc1cc(C#N)cc(N2CCc3nc(-c4ccccn4)oc3C2)c1` [Compound 16, 5-(2-(Pyridin-2-yl)-6,7-dihydrooxazolo[5,4-c]pyridin-5(4H)-yl)isophthalonitrile], the IC50 (Table 1) was less than 10000 nM.

`Fc1ccc(C2CCc3oc(-c4ccccn4)nc3C2)c(Cl)c1` (racemic) [Compound 223, 5-(2-Chloro-4-fluorophenyl)-2-(pyridin-2-yl)-4,5,6,7-tetrahydrobenzo[d]oxazole]: the IC50 (Table 2) is less than 1000 nM.

As for `N#Cc1cc(F)cc(N2CCc3nc(-c4ccccn4)sc3C2)c1` [Compound 105, 3-Fluoro-5-(2-(pyridin-2-yl)-6,7-dihydro-thiazolo[5,4-c]pyridin-5(4H)-yl)benzonitrile], under “Table 1”, the IC50 was less than 10000 nM.

With `Fc1ccc(N2CCCc3oc(-c4ncccn4)nc3C2)cc1F` [Compound 200, 5-(3,4-Difluorophenyl)-2-(pyrimidin-2-yl)-5,6,7,8-tetrahydro-4H-oxazolo[4,5-c]azepine], where the note is “Table 2”, the concentration for half-maximal inhibition (IC50) is greater than 10000 nM.

Consider `c1ccc(-c2nc3c(o2)CCN(c2ccccn2)C3)nc1` [Compound 27, 2,5-Di(pyridin-2-yl)-4,5,6,7-tetrahydrooxazolo[4,5-c]pyridine], for which, where the note is “Table 1”, the IC50 is less than 1000 nM.

In the case of `Fc1cc(-c2ccncc2)cc(N2CCc3nc(-c4ccccn4)oc3C2)c1` [Compound 14, 5-(3-Fluoro-5-(pyridin-4-yl)phenyl)-2-(pyridin-2-yl)-4,5,6,7-tetrahydrooxazolo[5,4-c]pyridine], the IC50 (Table 1) was less than 10000 nM.

Take `Fc1ccc(-c2nc3c(o2)CCCN(c2cc(F)cc(Cl)c2)C3)nc1` [Compound 205, 5-(3-Chloro-5-fluorophenyl)-2-(5-fluoropyridin-2-yl)-5,6,7,8-tetrahydro-4H-oxazolo[4,5-c]azepine]: the IC50 (Table 2) was less than 1000 nM.

`Clc1ccccc1[C@@H]1CCc2oc(-c3ccccn3)nc2C1` (single isomer, unassigned) [Compound 220]: the IC50 (Table 2) was less than 1000 nM.

Consider `N#Cc1cccnc1N1CCc2oc(-c3ccc(F)cc3)nc2C1` [Compound 46, 2-(2-(4-Fluorophenyl)-6,7-dihydrooxazolo[4,5-c]pyridin-5(4H)-yl)nicotinonitrile], for which, for the setting “Table 1”, the IC50 is greater than 10000 nM.

As to `N#Cc1cc(O)cc(N2CCCc3oc(-c4ccccn4)nc3C2)c1` [Compound 214, 3-Hydroxy-5-(2-(pyridin-2-yl)-7,8-dihydro-4H-oxazolo[4,5-c]azepin-5(6H)-yl)benzonitrile], the IC50 (Table 2) is less than 1000 nM.

In the case of `N#Cc1cc(F)cc(N2CCCc3oc(-c4ccncn4)nc3C2)c1` [Compound 138, 3-fluoro-5-(2-(pyrimidin-4-yl)-7,8-dihydro-4H-oxazolo[4,5-c]azepin-5(6H)-yl)benzonitrile], the IC50 (Table 2) was less than 1000 nM.

Take `N#Cc1cccc(N2CCc3nc(-c4cccnc4)oc3C2)c1` [Compound 77, 3-(2-(Pyridin-3-yl)-6,7-dihydrooxazolo[5,4-c]pyridin-5(4H)-yl)benzonitrile]: under “Table 1”, the IC50 was greater than 10000 nM.

Consider `Cc1cccnc1-c1nc2c(o1)CCN(c1cc(F)cc(C#N)c1)C2` [Compound 121, 3-fluoro-5-(2-(3-methylpyridin-2-yl)-6,7-dihydrooxazolo[4,5-c]pyridin-5(4H)-yl)benzonitrile], for which the 50% inhibitory concentration (IC50) (Table 2) was less than 10000 nM.

In the case of `c1ccc(-c2nc3c(o2)CCN(c2cccc4ccccc24)C3)nc1` [Compound 181, 5-(Naphthalen-1-yl)-2-(pyridin-2-yl)-4,5,6,7-tetrahydrooxazolo[4,5-c]pyridine], the half-maximal inhibitory concentration (IC50) (Table 2) is less than 1000 nM.

With `Clc1ccccc1N1CCCc2oc(-c3ccccn3)nc2C1` [Compound 211, 5-(2-Chlorophenyl)-2-(pyridin-2-yl)-5,6,7,8-tetrahydro-4H-oxazolo[4,5-c]azepine], the IC50 (Table 2) is less than 1000 nM.

Take `N#Cc1ccc(F)c(N2CCc3oc(-c4ccccn4)nc3C2)c1` [Compound 185, 4-Fluoro-3-(2-(pyridin-2-yl)-6,7-dihydrooxazolo[4,5-c]pyridin-5(4H)-yl)benzonitrile]: the IC50 (Table 2) is less than 1000 nM.

`Fc1cc(Cl)cc(N2CCCc3oc(-c4ccccn4)nc3C2)c1` [Compound 199, 5-(3-Chloro-5-fluorophenyl)-2-(pyridin-2-yl)-5,6,7,8-tetrahydro-4H-oxazolo[4,5-c]azepine]: the IC50 (Table 2) was less than 1000 nM.

Regarding `Cc1cccc(-c2nc3c(o2)CN(c2ccccn2)CC3)c1` [Compound 58, 5-(Pyridin-2-yl)-2-m-tolyl-4,5,6,7-tetrahydrooxazolo[5,4-c]pyridine], for the setting “Table 1”, the IC50 was less than 1000 nM.
